The results in this text go back to patent publication US8097422B2, “Kir channel modulators” (Salk Institute for Biological Studies, priority 2007, dated 2012).

Type in all cases: cell-based
In test [1] the target is T1, GIRK2 PIP channel (Mus musculus, UniProt P48542, D228N/I234L/N231K).
T1 construct: expressed in transfected cells; host or cells: HEK293 / HEK293T
T1 sequence (P48542 1-425 D228N/N231K/I234L): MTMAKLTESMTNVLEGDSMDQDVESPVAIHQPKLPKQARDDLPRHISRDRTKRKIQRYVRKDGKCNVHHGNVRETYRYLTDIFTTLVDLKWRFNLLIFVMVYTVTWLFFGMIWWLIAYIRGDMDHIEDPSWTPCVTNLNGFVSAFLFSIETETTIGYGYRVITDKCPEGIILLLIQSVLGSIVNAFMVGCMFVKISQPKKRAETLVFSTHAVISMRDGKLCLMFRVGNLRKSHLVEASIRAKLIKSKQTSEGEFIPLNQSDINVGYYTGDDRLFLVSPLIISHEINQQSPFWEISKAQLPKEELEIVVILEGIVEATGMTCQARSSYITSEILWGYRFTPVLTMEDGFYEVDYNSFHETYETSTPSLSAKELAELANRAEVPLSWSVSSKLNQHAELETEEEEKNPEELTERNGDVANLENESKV
Description: whole-cell patch clamp, GIRK2 PIP chimeric channel. The note with it: equimolar alcohol series (50 mM). Background: In patch-clamp work, channel activity is measured electrically.
Description: To test whether this sensitivity to inhibition would be altered by mutation at the MPD-bound hydrophobic pocket, Leu257 was mutated to Trp for this channel.
HEK 293T cells were cultured in DMEM supplemented with 10% FBS, and 1× Glutamax (Invitrogen) in a humidified 37° incubator with 5% CO2. Cells were plated in a 12 well dish, and were transiently transfected using Lipofectamine 2000 (Invitrogen). After 12-24 hrs, cells were re-plated to 12-mm glass coverslips coated with poly-D-Lysine (20 microgram/ml).
HEK293 cells were transfected with 0.2 micrograms of channel cDNA. The cells were co-transfected with 0.04 micrograms of eYFP cDNA to identify transfected cells. 0.8 micrograms of Muscarinic Receptor 2 (M2R) was also co-transfected for experiments with Carbachol. For experiments with and without m-phosducin, 0.8 ug of m-phosducin cDNA was used versus a PCDNA3.1 vector control.
Whole-cell patch clamp recordings were performed 24-72 hrs after transfection. Borosilicate glass electrodes (Warner Instruments) of 5-7 milliohms filled with intracellular solution (130 mM KCl, 20 mM NaCl, 5 mM EGTA, 2.56 mM K2ATP, 5.46 mM MgCl2, 0.30 mM Li2GTP, and 10 mM HEPES (pH 7.4)) was used. Membrane currents were recorded using Axopatch 200B (Axon Instruments) amplifier, adjusted electronically for cell capacitance and series resistance (80-100%), filtered at 1 kHz with an 8-pole Bessel filter and digitized at 5 kHz with a Digidata 1200 interface (Axon Instruments). The cells rapidly perfused with a 20 mM K^+ (20K) solution (20 mM KCl, 140 mM NaCl, 0.5 mM CaCl2, 2 mM MgCl2 and 10 mM HEPES (pH7.4)). Alcohols, 5 μM Carbachol, and 1 mM BaCl2 (diluted in 20K solution) were applied from outside the cell with the rapid perfusion system (Warner Instruments). Whole-cell currents were measured using a ramp protocol that holds at −40 mV, steps to −100 mV then ramps to +50 mV and repeats every 2 seconds. Current-voltage relationships also were obtained from the ramp protocol. This protocol was used to measure the inwardly rectifying currents at −100 mV and to ensure stability of recording by monitoring a reversal potential and inward rectification. Current density was measured by dividing inward current at −100 mV by membrane capacitance that was compensated during the recording. Basal currents were measured as the Ba^++ blocked inward currents at −100 mV. Alcohol and Carbachol modulated currents were measured by averaging two consecutive current readings upon reaching steady state, and subtracting the averaged basal current before and after the application of modulator. Pooled data are presented as Mean±SEM and evaluated for statistical significance by a 1-way ANOVA, followed by Bonferroni's multiple comparison post-hoc test.

Test [2] concerns the target T2, GIRK4 S143T mutant channel (GIRK4*) (Rattus norvegicus, UniProt P48548, S143T).
T2 construct: expressed in transfected cells; host or cells: HEK293 / HEK293T
T2 sequence (P48548 1-419 S143T): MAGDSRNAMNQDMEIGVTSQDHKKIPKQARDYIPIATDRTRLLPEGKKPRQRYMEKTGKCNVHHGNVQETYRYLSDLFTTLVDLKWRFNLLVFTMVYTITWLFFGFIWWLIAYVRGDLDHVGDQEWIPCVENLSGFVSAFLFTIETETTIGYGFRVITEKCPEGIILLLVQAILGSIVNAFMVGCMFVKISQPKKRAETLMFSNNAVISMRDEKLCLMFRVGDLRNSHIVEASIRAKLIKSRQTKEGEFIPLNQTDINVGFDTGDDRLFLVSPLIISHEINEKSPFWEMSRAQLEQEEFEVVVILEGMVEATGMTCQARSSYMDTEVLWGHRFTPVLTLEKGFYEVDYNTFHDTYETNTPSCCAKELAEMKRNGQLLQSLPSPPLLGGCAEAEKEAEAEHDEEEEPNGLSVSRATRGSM
Description: whole-cell patch clamp, GIRK4 S143T (GIRK4*) channel. The following applies: for modulation of GIRK4 S143T mutant channel, mean percentage change from basal: n=7; for activation of GIRK4*, mean percentage change from basal current: wild type GIRK4*, n=8. Here is the method:
(§1) Point mutations were introduced by Quickchange site directed mutagenesis kit (Stratagene). The GIRK2 PIP mutant was generated by overlap-PCR method. […] Mutations were confirmed by automated DNA sequencing methods. […] Cells were plated in a 12 well dish, and were transiently transfected using Lipofectamine 2000 (Invitrogen). After 12-24 hrs, cells were re-plated to 12-mm glass coverslips coated with poly-D-[…] microgram/ml). […] The cells were co-transfected with 0.04 micrograms of eYFP cDNA to identify transfected cells. 0.8 micrograms of Muscarinic Receptor 2 (M2R) was also co-transfected for experiments with Carbachol. […] Whole-cell patch clamp recordings were performed 24-72 hrs after transfection. […] Alcohols, 5 μM Carbachol, and 1 mM BaCl2 (diluted in 20K solution) were applied from outside the cell with the rapid perfusion system (Warner Instruments). […] Current-voltage relationships also were obtained from the ramp protocol. This protocol was used to measure the inwardly rectifying currents at -100 mV and to ensure stability of recording by monitoring a reversal potential and inward rectification. […] Alcohol and Carbachol modulated currents were measured by averaging two consecutive current readings upon reaching steady state, and subtracting the averaged basal current before and after the application of modulator.

Test [3] addresses T3, GIRK4* L252W mutant channel (Rattus norvegicus, UniProt P48548, L252W/S143T).
T3 construct: expressed in transfected cells; host or cells: HEK293 / HEK293T
T3 sequence (P48548 1-419 S143T/L252W): T2 sequence (P48548 1-419 S143T) with L252W
As to the kind of experiment: whole-cell patch clamp, GIRK4* L252W mutant channel. The note with it: for modulation of GIRK4* L252W mutant channel, percentage change from basal (negative = inhibition): n=8. How it is done:
as §1

Changes are numbered by the printed parent chain.

As to `CCO` [EtOH, ethanol], in test [1], the “inhibition of GIRK2 PIP channel, percentage inhibition” value (“inhibition … percentage inhibition” below) is listed as −18±2%. Also, in test [2], the “modulation of GIRK4 S143T mutant channel, mean percentage change from basal” value (“modulation … mean percentage change from basal” for short) is 35±4% and the “activation of GIRK4*, mean percentage change from basal current” value is 36±3%. Besides, in test [3], the “modulation of GIRK4* L252W mutant channel, percentage change from basal (negative = inhibition)” value is recorded as 5±2%.

Consider 1-butanol [1-BuOH], for which the “inhibition … percentage inhibition” value in test [1] is −97±1%. Moreover, the “modulation … mean percentage change from basal” value in test [2] was 23±3%.

As for `CC(O)CC(C)(C)O` (racemic) [MPD, 2-methyl-2,4-pentanediol], the “inhibition … percentage inhibition” value in test [1] was −80±2%. Also, in test [2], the “modulation … mean percentage change from basal” value amounted to 87±12% and the “activation of GIRK4*, mean percentage change from basal current” value amounted to 113±14%.

For `C[N+](C)(C)CCOC(N)=O` [Carbachol], in test [2] (5 μM Carbachol, M2R co-transfected), the “Carb activation of GIRK4* wild type, % of basal current” value is listed as 231±38%. The “Carb (G-protein mediated) activation, GIRK4* L252 Trp” value in test [3] (5 μM Carbachol) turned out to be 23±3%.

As to 1-propanol [1-PrOH], the “inhibition … percentage inhibition” value in test [1] is listed as −87±2%. Moreover, in test [2], the “modulation … mean percentage change from basal” value was determined as 51±6% and the “activation of GIRK4*, mean percentage change from basal current” value is listed as 64±7%. Moreover, in test [3], the “modulation of GIRK4* L252W mutant channel, percentage change from basal (negative = inhibition)” value is given as −19±2%.
